From article PMC7181660, “A novel specific PERK activator reduces toxicity and extends survival in Huntington's disease models” (Scientific Reports, 2020) come the findings set out here.

Series [1] has as its system eIF2α-P. The series can be described thus: Brain striatum immunofluorescence of eIF2α-P / total eIF2α. It counts as in vivo, mice. The conditions noted are these: week 4 after pump implantation. Here is the method:
Under anesthesia, animals were perfused with 4% PFA (formaldehyde in phosphate-buffered saline (PBS)) and the brains were removed and soaked in 4% PFA overnight. Then, brains were incubated overnight in 30% sucrose solution and frozen in OCT compound Tissue-Tek by using dry ice. Sections (10 µm) of the striatum were obtained by cryostat. Brain sections were processed for immunochemistry with the kind help of Daniel Frenkel. They were washed with PBS for 10 minutes, incubated in 0.5% triton-X-100 for 10 minutes and then in blocking solution containing 1% bovine serum albumin (BSA), 10% normal goat serum and 0.25% triton for one hour at room temperature. The samples were rinsed with PBS and incubated overnight at 4 °C with the selected primary antibody diluted in blocking solution (eIF2α-mouse [1:400] and phosphorylated eIF2α-rabbit [1:400]). […] After washing with PBS, samples were placed in DAPI (4′,6-diamidino-2-phenylindole) diluted in PBS for 10 minutes, mounted and examined by confocal microscope Zeiss LSM-510, 3 slides were analysed from each subject.
Signal quantification and cell counting were done using the ImageJ program. The value obtained for the phosphorylated eIF2α signal was divided by the total eIF2α signal in the same image. […] Statistical significance was determined at P < 0.05.

In series [2] the test system is WT MEF cells. The series can be described thus: Rescue from tunicamycin-induced apoptosis in WT MEFs. The class given is cell-based. The conditions noted are these: Mus musculus, MEF; WT MEFs treated with Tun; read-out: IC50 for inhibition of apoptosis. Here is the method:
(§1) STHdh^Q111/111 cells (used before[13]) or PERK+/+ or PERK−/− MEFs (kindly provided by David Ron, Univ. Cambridge) were incubated with Tun (10 μg/ml) for 48 h, which results in ER stress-induced cell death. Cells under the same conditions were incubated for the same times, together with Tun, with increasing concentrations of the different PERK modulators (0–120 μM) and the percent of apoptotic cells was measured by FACS cell cycle progression using propidium iodide (PI), considering the fraction beneath G0/G1. The relative apoptosis rate was calculated to be able to compare between compounds and experiments, where for each concentration curve the percent of apoptotic cells was considered 100 at concentration 0 of the PERK modulator, with only Tun. The graphs show the average relative apoptosis rate of at least 3 independent experiments for each compound.
(§2) Cells were washed with PBS and fixed with cold methanol. Before FACS analysis cells were washed with PBS, followed by addition of propidium iodide (PI) solution (10 μg/ml) and analysis by flow cytometry. Cells in sub-G0/G1 were counted as apoptotic/ dead.

Series [3] is described as follows: Pharmacokinetics and BBB penetration after single IP injection. The class given is in vivo. Conditions: mice, single IP 10 mg/kg.
Series [4] has as its system R6/2 HD mouse model. The series can be described thus: Rotarod test. The class given is in vivo, mice. Conditions: 1 mg/kg subcutaneous 28 days. Here is the method:
Motor activity was assessed by the rotarod test (San Diego Instruments, CA, USA) (0–25 RPM). Relative slow acceleration was used to discriminate small differences between groups particularly at advanced stages of the disease. All mice were trained together before any experimental procedure was performed to set a common baseline. They were required to stay at least 2 minutes without falling in order to participate in the study. R6/2 mice and control littermates were tested every week after pump transplantation. Each test consisted of 3 consecutive measurements of 5 minutes with inter-trial recess of 5 minutes. The latency to fall was recorded and the best performance of the three trials was considered for the analysis.

The subject of series [5] is STHdh^Q111/111 cells. The series can be described thus: Toxicity assay: rescue from tunicamycin (ER stress)-induced apoptosis, FACS with propidium iodide (sub-G0/G1). It counts as cell-based, murine. Here is the method:
as §1, §2

For series [6], the system named is R6/2 HD mouse model. The series can be described thus: Survival of R6/2 mice. It counts as in vivo. Here is the method: All experimental procedures were approved by and conducted in strict compliance with the Institutional Animal Care and Use Committee of Tel Aviv University. Mice were kept in a 12/12-hour light/dark cycle with food and water ad libitum. […]. At three weeks mice were assessed for CAG repeat size using the following primer set: 5’-[…]-3′ and 5′-[…] G-3′. Following Jackson laboratories guidelines, wild type (WT) and TG littermates were kept combined in the same minimally-enriched cages (with cardboard rolls and gauze pads), and after week 8 water and mushed food were placed at the ground level for all the cages. Male mice treatment groups were coded and remained blind to the observers throughout the experiment. Power calculations determined that 16 mice per group was the minimum required to see at least a 20% increase (alpha 0.05, beta 0.2, power 80%) in motor performance and survival of R6/2 mice with MK-28 subcutaneous delivery compared to vehicle. Multiple endpoints were prospectively selected, consistent with the analyses we here report. Data collection was ended before signs of animal suffering or inability to thrive appear.
Alzet pumps model 1004 (Alzet, USA), with a rate of 0.11 µl/hour and 28 days effective compound delivery was used. MK-28 compound was dissolved in 1:1 DMSO/PEG400 and prepared to delivery subcutaneously 6 mg/kg MK-28 for toxicity studies (n = 8) or 1 mg/kg for therapeutic evaluation in R6/2 mice (n = 72). For toxicity studies mice receiving six times the therapeutic dose of MK-28 or vehicle were weighed every two days for two consecutive weeks. […]. Alzet pumps were implanted in 4 weeks old mice and MK-28 was administered at 1 mg/kg with continuous dosing for 28 days. […]

[7] abbreviates: R6/2 TG, 1 mg/kg subcutaneous 28 days.

Like-named read-outs stand apart in the source and are kept apart here.

Turning to `CN(/N=C\c1ccc(O)c(O)c1)c1nc(-c2ccccc2)cc(-c2ccccc2)n1` [MK-28], the “increase of eIF2α-P levels in striatum” value in series [1] (TG mice) is recorded as ~ 6 fold; in series [1] (WT mice) it was ~ 7 fold. Further, the IC50 came out at 1.7 µM in series [2] and 6.8 µM in series [5] (Mus musculus, STHdhQ111, STHdh^Q111/111 cells treated with Tun, read-out: IC50 for inhibition of apoptosis). Further, the “time of Cmax in plasma after injection” value in series [3] was 40 min. Further, the “time of Cmax in the brain after injection” value in series [3] is reported as 40 min. In addition, the Kp in series [3] (mouse, brain, read-out: AUC in the brain as % of that in the plasma) was 0.22. Besides, the Cmax in series [3] (mouse, brain, read-out: Cmax in the brain) is 57 ng/g; in series [3] (mouse, plasma, read-out: Cmax in plasma), 105 ng/mL. Further, the half-life came out at 80 min in series [3] (mouse, brain, read-out: half-life in the brain) and 30 min in series [3] (mouse, plasma, read-out: half-life in plasma). In addition, in series [4] (R6/2 TG, week 4), the “motor performance (rotarod) of TG mice vs untreated TG” value is “significant improvements in motor performance”. Besides, the “motor performance (rotarod) of WT animals” value in series [4] (WT mice) is “no compromised motor performance”. The “rescue from ER stress-induced apoptosis” value in series [5] (0–100 μM, 48 h Tun exposure (Fig. 1C)) was “able to rescue the cells from apoptosis”. Further, the reduction of apoptosis is on record as 20% in series [5] (5 μM, 48 h Tun exposure); 40% in series [5] (10 μM, Tun (Fig. 4C)); 5 fold in series [5] (100 μM, 48 h Tun exposure). Also, the “IC50 ratio MK-28 vs CCT020312 in rescuing mHtt-expressing striatal neurons from apoptosis” value in series [5] (Fig. 4C) is listed as ~ 3 fold. In series [5] (Tun (Fig. 1D)), the “concentration that showed identical levels of apoptosis in STHdh^Q111/111 and STHdh^Q7/7 cells” value stood at 50 µM. For the same molecule, the “extension of median survival and death initiation” value in series [6] (28-day treatment in young R6/2 mice) was determined as 10%. For the same molecule, in series [6] (95% CI 0.7726 to 4.611), the “survival curve ratio (Gehan-Breslow-Wilcoxon test)” value turned out to be 1.887. Also, in series [6] (setting [7]), the “delay of death initiation” value stood at 10 days. The “increase of median survival compared to controls” value in series [6] (setting [7]) was 8 days. The molecule further yielded a median survival in series [6] (setting [7]) of 97 days.

By IC50 is commonly meant the concentration at which inhibition is half-maximal. The Cmax is the maximum level reached in the sampled fluid or tissue. As a reminder, the half-life is the time needed for the level to fall by half in the phase considered.
